Results: US20100266569A1, “PROSTATIC ACID PHOSPHATASE FOR THE TREATMENT OF PAIN” (priority 2007, published 2010)
Entries after “also recorded” stand apart in the source; their conditions may differ.

What was measured:
[1] = system: wild-type C57BL/6 male mice; format: in vivo, mouse
Source text: Signs of immune and microglial activation can be monitored using molecular markers.

[2] = system: wild-type C57BL/6 male mice; test: Noxious thermal sensitivity, Hargreaves method (paw withdrawal latency to radiant heat) after i.t. injection; format: in vivo, mouse
Method: Behavior. C57BL/6 male mice, 2-3 months old, were purchased from Jackson Laboratories (Bar Harbor, Maine, United States of America) for all behavioral experiments involving PAP protein injections. All mice were acclimated to the testing room, equipment and experimenter for one day before behavioral testing. The experimenter was blind to genotype and drug treatment during behavioral testing.
Thermal sensitivity was measured by heating one hindpaw with a Plantar Test apparatus (IITC) following the Hargreaves method (Hargreaves et al., 1988). The radiant heat source intensity was calibrated so that a paw withdrawal reflex was evoked in ˜10 seconds, on average, in wild-type C57BL/6 mice. Cutoff time was 20 s. One measurement was taken from each paw per day to determine paw withdrawal latency. To perform the tail immersion assay, mice were gently restrained in a towel and the distal one-third of the tail was immersed in 46.5° C. water. Latency to withdrawal the tail was measured once per mouse. Mechanical sensitivity was measured using semi-rigid tips attached to an Electronic von Frey apparatus (IITC) as described elsewhere (Cunha et al., 2004; Inoue et al., 2004). Three measurements were taken from each paw (separated at 5 min. intervals) then averaged to determine paw withdrawal threshold in grams.
Intrathecal injections. hPAP, bPAP and vehicle controls were injected into the lumbar region of unanesthetized mice as described (Fairbanks, 2003).
Intrathecal injection was chosen because PAP protein is unlikely to reach spinal cord tissue if injected intraperitoneally.

[3] = molecular target: T1, A1-adenosine receptor (A1R) (Mus musculus, UniProt Q60612); test: Antagonism of hPAP anti-nociception by the A1R antagonist CPX, CFA model; format: in vivo
T1 construct: endogenous in cells; host or cells: wild-type C57BL/6 mice, in vivo (CPX 1 mg/kg i.p.)
T1 sequence (Q60612 1-326): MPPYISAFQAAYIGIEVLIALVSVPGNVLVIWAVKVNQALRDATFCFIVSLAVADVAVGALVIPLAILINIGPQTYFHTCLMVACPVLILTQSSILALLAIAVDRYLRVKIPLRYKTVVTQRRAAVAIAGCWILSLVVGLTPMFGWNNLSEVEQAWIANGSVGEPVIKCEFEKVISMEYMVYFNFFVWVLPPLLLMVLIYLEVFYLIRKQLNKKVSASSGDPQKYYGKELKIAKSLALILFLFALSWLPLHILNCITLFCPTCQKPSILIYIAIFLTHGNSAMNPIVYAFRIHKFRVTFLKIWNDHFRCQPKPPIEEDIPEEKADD
Method: Wild-type mice were tested for noxious thermal (FIG. 29A) and mechanical (FIG. 29B) sensitivity before (baseline, BL) and following injection of Complete Freund's Adjuvant (CFA-arrow) into one hindpaw (inflamed paw, open circles or dark squares). The non-inflamed hindpaw served as control (shaded circles or squares). All mice were injected with active hPAP (hPAP-arrow; 250 mU, i.t.). Two days later, half the mice were injected with vehicle (CPXN-arrow, circles; intraperitoneal (i.p.); 1 h before behavioral measurements) while the other half were injected with 8-cyclopentyl-1,3-dipropylxanthine (CPX/V-arrow, squares; 1 mg/kg i.p.; 1 h before behavioral measurements). […] All data are presented as means±SEM.
The responses of wild-type and A1R^−/− mice were also tested using the CFA chronic inflammatory pain model and the SNI neuropathic pain model.

[4] = system: PAP (bPAP, mPAP); test: Fluorometric acid phosphatase assay (DiFMUP, EnzChek); format: biochemical, bovine; mouse; details: L-tartrate 10 mM
Method: FIG. 3 is a set of bar graphs showing a fluorometric assay to quantify acid phosphatase activity. […] Right-hand Bar Graph: Mouse prostatic acid phosphatase (mPAP) assayed from transfected cell lysates. Activity is reduced by the PAP inhibitor L-tartrate (10 mM). These assays were performed following the manufacturers protocol (EnzChek Assay, Invitrogen, Carlsbad, Calif., United States of America) and quantified using a fluorescent microplate reader.
A way to quantify PAP activity was needed so that reproducible amounts of active PAP protein could be added to cultured cells or injected into live mice for the experiments described below. To accomplish this, two well-established methods were tested for measuring PAP activity: 1) a colorimetric assay using para-nitrophenyl phosphate (p-NPP) hydrolysis; and 2) a fluorometric assay using difluoro-4-methylumbelliferyl phosphate (DiFMUP) hydrolysis (commercially available as the EnzChek Acid Phosphatase kit from Invitrogen, Carlsbad, Calif., United States of America). Based on direct comparisons, it was determined that the fluorometric assay was much more sensitive than p-NPP for quantification of PAP activity. […] This fluorometric assay can thus be used to quantify phosphatase activity of pure PAP protein and PAP from cell lysates.

[5] = system: wild-type C57BL/6 male mice; test: LPA-evoked sensitization in vivo (i.t. LPA with or without bPAP); details: 1 nmol LPA i.t., alone or incubated with 20 μU bPAP 10 min at 37° C.
Method: First, mechanical sensitivity was measured with an electronic von Frey apparatus (IITC). Then, thermal sensitivity was measured using the Hargreaves method (radiant heating of hindpaw; IITC Plantar Test Apparatus).

[6] = system: Rat1 cells; test: LPA-evoked calcium signaling (Fura2-AM) with LPA pre-incubated with bPAP; format: cell-based, rat; details: 1 μM LPA incubated 1.5 hr at 37° C. with or without 0.2 mU bPAP, applied 1 minute
Method: (“a” in FIG. 4). In parallel, a second tube was incubated containing 1 μM LPA (without bPAP) for 1.5 hr at 37° C. (“b” in FIG. 4). Rat1 cells were loaded with the calcium-sensitive dye Fura2-acetoxymethyl (AM) ester (Dong et al., 2001), and (LPA+bPAP) applied to these cells for 1 minute (see “a” in FIG. 4). Following a brief washout period, (LPA) was applied to the cells for 1 minute (see “b” in FIG. 4).

In the case of OC[C@H]1O[C@@H](n2cnc3c(NC4CCCC4)ncnc32)[C@H](O)[C@@H]1O [CPA, N^6-cyclopentyladenosine], the motor paralysis ([1]; two highest i.t. doses (dose range 0.0005 nmol-5 nmol)) is reported as “transient paralysis; also recorded: fore- and hindlimb paralysis”, the “duration of effect on paw withdrawal latency, in words” value ([2]; i.t., compared with hPAP) is reported as “short-term effects (lasting hours not days)” and the “effect on noxious thermal sensitivity / paw withdrawal latency” value ([2]; uninjured wild-type mice, i.t. injection (bPAP 20 μU; hPAP 1.3 mg/mL or 250 mU; ALP 25,000 mU)) is reported as “dose-dependent increases in paw withdrawal latency”.
For CCCn1c(=O)c2[nH]c(C3CCCC3)nc2n(CCC)c1=O [CPX, 8-cyclopentyl-1,3-dipropylxanthine], the “effect on thermal or mechanical sensitivity after hPAP effects wore off” value ([3]; 1 mg/kg i.p. on day 9) was “did not affect thermal or mechanical sensitivity” and the “effect on anti-nociceptive effects of hPAP” value ([3]; 1 mg/kg i.p., two days after hPAP 250 mU i.t., 1 h before behavioral measurements) was “transiently reversed the anti-nociceptive effects of hPAP in control and inflamed hindpaws; also recorded: transiently antagonized all anti-nociceptive effects of hPAP”.
For O=C(O)[C@H](O)[C@@H](O)C(=O)O [L-tartrate], the “effect on PAP phosphatase activity” value [4] was “inhibited; also recorded: reduced”.
CN1CC[C@]23c4c5ccc(O)c4O[C@H]2[C@@H](O)C=C[C@H]3[C@H]1C5.O=S(=O)(O)O [morphine, morphine sulfate] was tested, and the side effects ([1]; mouse, in vivo) was “Side-effects were observed at the two highest doses” and the “increase in paw withdrawal latency above baseline” value ([2]; single i.t. injection, highest doses) was 62.2%±9.9%.
With lysophosphatidic acid [LPA] the “behavioral sensitization (mechanical allodynia, thermal hyperalgesia)” value [5] was “caused long-lasting mechanical allodynia and thermal hyperalgesia” and the “change of intracellular calcium levels” value [6] was “dramatically changed”.
